Target: T1, mGluR5 (Homo sapiens, UniProt P41594)
T1 construct: expressed in transfected cells
Assay: inhibition of the glutamate (agonist) induced elevation of the inositol phosphate turnover
Assay type: cell-based
Settings: inhibition of glutamate induced elevation of inositol phosphate turnover at 0.1 μM
Description: This can be determined in vitro for example at recombinant human metabotropic glutamate receptors, especially PLC-coupled subtypes thereof such as mGluR5, using different procedures like, for example, measurement of the inhibition of the agonist induced elevation of intracellular Ca^2+ concentration in accordance with L. P. Daggett et al., Neuropharm. Vol. 34, pages 871-886 (1995), P. J. Flor et al., J. Neurochem. Vol. 67, pages 58-63 (1996) or by determination to what extent the agonist induced elevation of the inositol phosphate turnover is inhibited as described by T. Knoepfel et al., Eur. J. Pharmacol. Vol. 288, pages 389-392 (1994), L. P. Daggett et al., Neuropharm. Vol. 67, pages 58-63 (1996) and references cited therein. Isolation and expression of human mGluR subtypes are described in U.S. Pat. No. 5,521,297. Selected agents of the invention show IC50 values for the inhibition of the agonist (e.g. glutamate or quisqualate) induced elevation of intracellular Ca2+ concentration or the agonist (e.g. glutamate or quisqualate) induced inositol phosphate turnover, measured in recombinant cells expressing hmGluR^5a of about 0.1 nM to about 50 μM.
Activity of compounds of the present invention was examined by determination to what extent the agonist induced elevation of the inositol phosphate turnover is inhibited as described by T. Knoepfel et al., Eur. J. Pharmacol. Vol. 288, pages 389-392 (1994), L. P. Daggett et al., Neuropharm. Vol. 67, pages 58-63 (1996) and references cited therein.
The table below represents percentages of inhibition of the glutamate induced elevation of the inositol phosphate turnover at a concentration of 0.1 μM.

T1 sequence (P41594 21-1180 isoform P41594-2 limits assumed): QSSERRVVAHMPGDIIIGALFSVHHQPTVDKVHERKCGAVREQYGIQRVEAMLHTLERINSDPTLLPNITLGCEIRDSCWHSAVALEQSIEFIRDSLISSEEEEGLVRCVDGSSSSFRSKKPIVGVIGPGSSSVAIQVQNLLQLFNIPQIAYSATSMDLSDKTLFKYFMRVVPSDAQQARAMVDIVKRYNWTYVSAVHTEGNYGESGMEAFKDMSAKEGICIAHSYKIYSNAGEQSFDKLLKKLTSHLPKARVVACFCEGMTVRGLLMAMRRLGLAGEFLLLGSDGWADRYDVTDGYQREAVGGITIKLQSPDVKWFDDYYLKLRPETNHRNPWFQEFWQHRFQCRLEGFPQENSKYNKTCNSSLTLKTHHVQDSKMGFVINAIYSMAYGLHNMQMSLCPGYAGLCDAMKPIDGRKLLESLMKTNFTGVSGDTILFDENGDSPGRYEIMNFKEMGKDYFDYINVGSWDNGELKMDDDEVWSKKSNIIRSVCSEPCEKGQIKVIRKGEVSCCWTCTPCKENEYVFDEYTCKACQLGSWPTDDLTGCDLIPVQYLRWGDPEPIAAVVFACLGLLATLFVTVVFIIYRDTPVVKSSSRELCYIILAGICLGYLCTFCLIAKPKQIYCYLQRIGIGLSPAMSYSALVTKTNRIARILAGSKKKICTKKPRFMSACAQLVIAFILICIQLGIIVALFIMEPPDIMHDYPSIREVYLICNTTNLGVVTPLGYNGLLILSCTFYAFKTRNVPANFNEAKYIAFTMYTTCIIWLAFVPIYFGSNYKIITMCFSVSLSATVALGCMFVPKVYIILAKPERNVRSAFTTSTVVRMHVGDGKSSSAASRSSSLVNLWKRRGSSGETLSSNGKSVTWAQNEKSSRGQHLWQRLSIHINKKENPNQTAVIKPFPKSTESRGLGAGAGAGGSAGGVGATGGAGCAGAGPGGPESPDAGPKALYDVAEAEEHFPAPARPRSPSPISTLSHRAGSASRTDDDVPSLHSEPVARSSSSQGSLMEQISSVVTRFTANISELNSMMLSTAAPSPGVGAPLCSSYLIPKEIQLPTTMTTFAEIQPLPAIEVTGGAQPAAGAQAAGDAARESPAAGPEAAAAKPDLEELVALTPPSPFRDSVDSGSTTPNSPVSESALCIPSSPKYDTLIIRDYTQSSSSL

| inhibition at 0.1 µM [%] | Structure (SMILES) | mGluR5-activity in [%] inhibition at 0.1 μM [%] |
| --- | --- | --- |
| 99 | CCCn1c(-c2ccc(Nc3ccc(C)nc3)cc2)nc2cccc(Cl)c21 [Example 78, [4-(7-Chloro-1-propyl-1H-benzoimidazol-2-yl)-phenyl]-(6-methyl-pyridin-3-yl)-amine] |  |
| 65 | CCCn1c(-c2ccc(Nc3ccc(C)nc3)cc2)nc2ccc(F)cc21 [Example 79, [4-(6-Fluoro-1-propyl-1H-benzoimidazol-2-yl)-phenyl]-(6-methyl-pyridin-3-yl)-amine] |  |
| 90 | CCCn1c(-c2ccc(Nc3ccc(C)cc3)cc2)nc2cccc(Cl)c21 [Example 80, [4-(7-Chloro-1-propyl-1H-benzoimidazol-2-yl)-phenyl]-p-tolyl-amine] |  |
| 96 | CCCn1c(-c2ccc(Nc3ccc(Cl)cc3)cc2)nc2cccc(Cl)c21 [Example 81, (4-Chloro-phenyl)-[4-(7-chloro-1-propyl-1H-benzoimidazol-2-yl)-phenyl]-amine] |  |
| 88 | CCCn1c(-c2ccc(Nc3ccc(OC)cc3)cc2)nc2cccc(Cl)c21 [Example 82, [4-(7-Chloro-1-propyl-1H-benzoimidazol-2-yl)-phenyl]-(4-methoxy-phenyl)-amine] |  |
| 52 | CCCn1c(-c2ccc(Nc3ccc(C)cc3)cc2)nc2ccc(F)cc21 [Example 83, [4-(6-Fluoro-1-propyl-1H-benzoimidazol-2-yl)-phenyl]-p-tolyl-amine] |  |
| 60 | CCCn1c(-c2ccc(Nc3ccc(OC)cc3)nn2)nc2cccc(Cl)c21 [Example 86, [6-(7-Chloro-1-propyl-1H-benzoimidazol-2-yl)-pyridazin-3-yl]-(4-methoxy-phenyl)-amine] |  |
| 47 | CCCn1c(-c2ccc(Nc3ccc(Cl)cc3)nn2)nc2cccc(Cl)c21 [Example 87, (4-Chloro-phenyl)-[6-(7-chloro-1-propyl-1H-benzoimidazol-2-yl)-pyridazin-3-yl]-amine] |  |
| 97 | CCCn1c(-c2ccc(Nc3ccc(C)nc3)nn2)nc2cccc(Cl)c21 [Example 88, [6-(7-Chloro-1-propyl-1H-benzoimidazol-2-yl)-pyridazin-3-yl]-(6-methyl-pyridin-3-yl)-amine] |  |
| 102 | CCCn1c(-c2cnc(Nc3ccc(OC)cc3)nc2)nc2cccc(Cl)c21 [Example 90, [5-(7-Chloro-1-propyl-1H-benzoimidazol-2-yl)-pyrimidin-2-yl]-(4-methoxy-phenyl)-amine] |  |
| 100 | CCCn1c(-c2cnc(Nc3ccc(Cl)cc3)nc2)nc2cccc(Cl)c21 [Example 91, (4-Chloro-phenyl)-[5-(7-chloro-1-propyl-1H-benzoimidazol-2-yl)-pyrimidin-2-yl]-amine] |  |
| 99 | CCCn1c(-c2cnc(Nc3ccc(C)nc3)nc2)nc2cccc(Cl)c21 [Example 92, [5-(7-Chloro-1-propyl-1H-benzoimidazol-2-yl)-pyrimidin-2-yl]-(6-methyl-pyridin-3-yl)-amine] |  |
| 34 | CCCn1c(-c2cnc(Nc3ccc(OC)cc3)nc2)nc2ccc(F)cc21 [Example 93, [5-(6-Fluoro-1-propyl-1H-benzoimidazol-2-yl)-pyrimidin-2-yl]-(4-methoxy-phenyl)-amine] |  |
| 97 | CCCn1c(-c2ccc(Nc3ccc(C)nc3)c(Cl)c2)nc2ccccc21 [Example 94, [2-Chloro-4-(1-propyl-1H-benzoimidazol-2-yl)-phenyl]-(6-methyl-pyridin-3-yl)-amine] |  |
| 63 | CCCn1c(-c2ccc(Nc3ccc(C)cc3)c(Cl)c2)nc2cccc(Cl)c21 [Example 95, [2-Chloro-4-(7-chloro-1-propyl-1H-benzoimidazol-2-yl)-phenyl]-p-tolyl-amine] |  |
| 85 | CCCn1c(-c2ccc(Nc3ccc(Cl)cc3)c(Cl)c2)nc2cccc(Cl)c21 [Example 96, [2-Chloro-4-(7-chloro-1-propyl-1H-benzoimidazol-2-yl)-phenyl]-(4-chloro-phenyl)-amine] |  |

Second part, the compound before the results:

| Structure (SMILES) | inhibition at 0.1 µM [%] | mGluR5-activity in [%] inhibition at 0.1 μM [%] |
| --- | --- | --- |
| CCCn1c(-c2cnc(Nc3ccc4ncccc4c3)c(Cl)c2)nc2cccc(Cl)c21 [Example 64, [3-Chloro-5-(7-chloro-1-propyl-1H-benzoimidazol-2-yl)-pyridin-2-yl]-quinolin-6-yl-amine] | 17 |  |
| CCCn1c(-c2cnc(Nc3ccc(C)cc3)c(Cl)c2)nc2ccc(F)cc21 [Example 65, [3-Chloro-5-(6-fluoro-1-propyl-1H-benzoimidazol-2-yl)-pyridin-2-yl]-p-tolyl-amine] | 92 |  |
| CCCn1c(-c2cnc(Nc3ccc(OC)cc3)c(Cl)c2)nc2ccc(F)cc21 [Example 66, [3-Chloro-5-(6-fluoro-1-propyl-1H-benzoimidazol-2-yl)-pyridin-2-yl]-(4-methoxy-phenyl)-amine] | 93 |  |
| CCCn1c(-c2cnc(Nc3c(F)cccc3F)c(Cl)c2)nc2cccc(Cl)c21 [Example 67, [3-Chloro-5-(7-chloro-1-propyl-1H-benzoimidazol-2-yl)-pyridin-2-yl]-(2,6-difluoro-phenyl)-amine] | 42 |  |
| CCCn1c(-c2cnc(Nc3ccc(N(C)C)nc3)c(Cl)c2)nc2ccc(F)cc21 [Example 68, N-5-[3-Chloro-5-(6-fluoro-1-propyl-1H-benzoimidazol-2-yl)-pyridin-2-yl]-N-2,N-2-dimethyl-pyridine-2,5-diamine] |  | 43 |
| CCCn1c(-c2cnc(Nc3ccc(N(C)C)nc3)c(Cl)c2)nc2ccccc21 [Example 69, N-5-[3-Chloro-5-(1-propyl-1H-benzoimidazol-2-yl)-pyridin-2-yl]-N2,N-2-dimethyl-pyridine-2,5-diamine] |  | 32 |
| CCCn1c(-c2cnc(Nc3ccc(N(C)C)nc3)c(Cl)c2)nc2cccc(Cl)c21 [Example 70, N-5-[3-Chloro-5-(7-chloro-1-propyl-1H-benzoimidazol-2-yl)-pyridin-2-yl]-N2,N-2-dimethyl-pyridine-2,5-diamine] |  | 90 |
| CCCn1c(-c2cnc(Nc3ccc(NC(C)=O)nc3)c(Cl)c2)nc2ccc(F)cc21 [Example 71, N-{5-[3-Chloro-5-(6-fluoro-1-propyl-1H-benzoimidazol-2-yl)-pyridin-2-ylamino]-pyridin-2-yl}-acetamide] | 20 |  |
| CCCn1c(-c2cnc(Nc3ccc(N)nc3)c(Cl)c2)nc2ccc(F)cc21 [Example 71b, N-5-[3-Chloro-5-(6-fluoro-1-propyl-1H-benzoimidazol-2-yl)-pyridin-2-yl]-pyridine-2,5-diamine] |  | 100 |
| CCCn1c(-c2cnc(Nc3cnccn3)c(Cl)c2)nc2cccc(Cl)c21 [Example 72, [3-Chloro-5-(7-chloro-1-propyl-1H-benzoimidazol-2-yl)-pyridin-2-yl]-pyrazin-2-yl-amine] | 96 |  |
| CCCn1c(-c2cnc(Nc3cc(C)no3)c(Cl)c2)nc2cccc(Cl)c21 [Example 73, [3-Chloro-5-(7-chloro-1-propyl-1H-benzoimidazol-2-yl)-pyridin-2-yl]-(3-methyl-isoxazol-5-yl)-amine] | 98 |  |
| CCCn1c(-c2cnc(Nc3ccc(OC)nc3)c(Cl)c2)nc2cccc(Cl)c21 [Example 74, [3-Chloro-5-(7-chloro-1-propyl-1H-benzoimidazol-2-yl)-pyridin-2-yl]-(6-methoxy-pyridin-3-yl)-amine] | 99 |  |
| CCCn1c(-c2cnc(Nc3ccc(OC)cc3)c(Cl)c2)nc2cccc(Cl)c21 [Example 75, [3-Chloro-5-(7-chloro-1-propyl-1H-benzoimidazol-2-yl)-pyridin-2-yl]-(4-methoxy-phenyl)-amine] | 99 |  |
| CCCn1c(-c2cnc(Nc3ccc(C#N)nc3)c(Cl)c2)nc2cccc(Cl)c21 [Example 75b, 5-[3-Chloro-5-(7-chloro-1-propyl-1H-benzoimidazol-2-yl)-pyridin-2-ylamino]-pyridine-2-carbonitrile] | 99 |  |
| CCCn1c(-c2cnc(Nc3ccc(NC(C)=O)nc3)c(Cl)c2)nc2cccc(Cl)c21 [Example 75c, N-{5-[3-Chloro-5-(7-chloro-1-propyl-1H-benzoimidazol-2-yl)-pyridin-2-ylamino]-pyridin-2-yl}-acetamide] | 100 |  |
| CCCn1c(-c2cnc(Nc3ccc(C(=O)OC)nc3)c(Cl)c2)nc2cccc(Cl)c21 [Example 75d, 5-[3-Chloro-5-(7-chloro-1-propyl-1H-benzoimidazol-2-yl)-pyridin-2-ylamino]-pyridine-2-carboxylic acid methyl ester] | 100 |  |
| CCCn1c(-c2cnc(Nc3ccc(N)nc3)c(Cl)c2)nc2cccc(Cl)c21 [Example 75e, N-5-[3-Chloro-5-(7-chloro-1-propyl-1H-benzoimidazol-2-yl)-pyridin-2-yl]-pyridine-2,5-diamine] |  | 100 |
| CCCn1c(-c2cnc(Nc3ccc(CO)nc3)c(Cl)c2)nc2cccc(Cl)c21 [Example 75f, {5-[3-Chloro-5-(7-chloro-1-propyl-1H-benzoimidazol-2-yl)-pyridin-2-ylamino]-pyridin-2-yl}-methanol] | 92 |  |
